Several values for one entry are separate records, joined by “and”; a condition that tells them apart may be missing. Identical values can stand only once. Values belong to the compound of their own block, whether it stands above or below them.
Test system: 242566-281-R-J2-PDC complex spheroid viability
Test: Anticancer human tumor 242566-281-R-J2-PDC patient-derived pancreatic carcinoma cell line growth inhibition [CLK]
Details: for viability, T/C: stronger effect = lower value
Procedure, shortened: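 Patient-derived tumor cells grown as complex spheroids with HUVEC endothelial cells and mesenchymal stem cells, treated with drug combinations. Concentrations descend in half-log steps from near clinical Cmax, or from 10 microM if Cmax unknown.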

[1] = curve of first compound, second compound 0.0316 µM
[2] = curve of first compound, second compound 0.1 µM
[3] = curve of first compound, second compound 0.316 µM
[4] = curve of first compound, second compound 1 µM
[5] = curve of first compound, second compound 3.16 µM
[6] = curve of first compound, second compound 10 µM
[7] = second compound 0.0316 µM, first compound 0.0316 µM
[8] = second compound 0.0316 µM, first compound 0.1 µM
[9] = second compound 0.0316 µM, first compound 0.316 µM
[10] = second compound 0.0316 µM, first compound 1 µM
[11] = second compound 0.1 µM, first compound 0.0316 µM
[12] = second compound 0.1 µM, first compound 0.1 µM
[13] = second compound 0.1 µM, first compound 0.316 µM
[14] = second compound 0.1 µM, first compound 1 µM
[15] = second compound 0.316 µM, first compound 0.0316 µM
[16] = second compound 0.316 µM, first compound 0.1 µM
[17] = second compound 0.316 µM, first compound 0.316 µM
[18] = second compound 0.316 µM, first compound 1 µM
[19] = second compound 1 µM, first compound 0.0316 µM
[20] = second compound 1 µM, first compound 0.1 µM
[21] = second compound 1 µM, first compound 0.316 µM
[22] = second compound 1 µM, first compound 1 µM
[23] = second compound 3.16 µM, first compound 0.0316 µM
[24] = second compound 3.16 µM, first compound 0.1 µM
[25] = second compound 3.16 µM, first compound 0.316 µM
[26] = second compound 3.16 µM, first compound 1 µM
[27] = second compound 10 µM, first compound 0.0316 µM
[28] = second compound 10 µM, first compound 0.1 µM
[29] = second compound 10 µM, first compound 0.316 µM
[30] = second compound 10 µM, first compound 1 µM
[31] = second compound 0.0316 µM, first compound 3.16 µM
[32] = second compound 0.0316 µM, first compound 10 µM
[33] = second compound 0.1 µM, first compound 3.16 µM
[34] = second compound 0.1 µM, first compound 10 µM
[35] = second compound 0.316 µM, first compound 3.16 µM
[36] = second compound 0.316 µM, first compound 10 µM
[37] = second compound 1 µM, first compound 3.16 µM
[38] = second compound 1 µM, first compound 10 µM
[39] = second compound 3.16 µM, first compound 3.16 µM
[40] = second compound 3.16 µM, first compound 10 µM
[41] = second compound 10 µM, first compound 3.16 µM
[42] = second compound 10 µM, first compound 10 µM
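Further: spheroids exposed to compounds for 7 days before readout.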
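Wherever viability, T/C is given: 100% = DMSO vehicle control wells.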

Compound: COc1ccc([C@@H](O)c2cc(-c3ncnc4cc(N5CCOCC5)ccc34)c(F)cc2Cl)nn1 + CN1CCN(c2cc(C(=O)Nc3cc4cc(-c5cnn(C)c5)ccc4cn3)ccn2)CC1
- IC50 [1]: > 10000 nM
- IC50 [2]: 6170 nM
- IC50 [3]: < 31.6 nM
- IC50 [4]: < 31.6 nM
- IC50 [5]: < 31.6 nM
- IC50 [6]: < 31.6 nM
- viability, T/C [7]: 106%
- viability, T/C [8]: 104%
- viability, T/C [9]: 90.4%
- viability, T/C [10]: 87%
- viability, T/C [31]: 70.3%
- viability, T/C [32]: 50.1%
- viability, T/C [11]: 97.9%
- viability, T/C [12]: 85%
- viability, T/C [13]: 80.1%
- viability, T/C [14]: 73.6%
- viability, T/C [33]: 67.5%
- viability, T/C [34]: 38.8%
- viability, T/C [15]: 30.2%
- viability, T/C [16]: 22.3%
- viability, T/C [17]: 26.9%
- viability, T/C [18]: 20.3%
- viability, T/C [35]: 25%
- viability, T/C [36]: 11.8%
- viability, T/C [19]: 5.5%
- viability, T/C [20]: 4.93%
- viability, T/C [21]: 4.05%
- viability, T/C [22]: 4.46%
- viability, T/C [37]: 4.87%
- viability, T/C [38]: 5.56%
- viability, T/C [23]: 6.52%
- viability, T/C [24]: 6.92%
- viability, T/C [25]: 5.95%
- viability, T/C [26]: 6.56%
- viability, T/C [39]: 7.75%
- viability, T/C [40]: 6.44%
- viability, T/C [27]: 1.12%
- viability, T/C [28]: 1.29%
- viability, T/C [29]: 1.09%
- viability, T/C [30]: 1.69%
- viability, T/C [41]: 2.12%
- viability, T/C [42]: 1.23%

Compound: CC1(C)CCC(CN2CCN(c3ccc(C(=O)NS(=O)(=O)c4ccc(NCC5CCOCC5)c([N+](=O)[O-])c4)c(Oc4cnc5[nH]ccc5c4)c3)CC2)=C(c2ccc(Cl)cc2)C1 + CN1CCN(c2cc(C(=O)Nc3cc4cc(-c5cnn(C)c5)ccc4cn3)ccn2)CC1
- IC50 [1]: 6540 nM
- IC50 [2]: 6080 nM
- IC50 [3]: < 31.6 nM
- IC50 [4]: < 31.6 nM
- IC50 [5]: < 31.6 nM
- IC50 [6]: < 31.6 nM
- viability, T/C [7]: 109%
- viability, T/C [8]: 109%
- viability, T/C [9]: 101%
- viability, T/C [10]: 112%
- viability, T/C [31]: 109%
- viability, T/C [32]: 16.1%
- viability, T/C [11]: 100%
- viability, T/C [12]: 92.8%
- viability, T/C [13]: 93.2%
- viability, T/C [14]: 96.9%
- viability, T/C [33]: 107%
- viability, T/C [34]: 13.4%
- viability, T/C [15]: 38.1%
- viability, T/C [16]: 34%
- viability, T/C [17]: 31.9%
- viability, T/C [18]: 38.9%
- viability, T/C [35]: 36.2%
- viability, T/C [36]: 5.57%
- viability, T/C [19]: 5.27%
- viability, T/C [20]: 5.79%
- viability, T/C [21]: 6.15%
- viability, T/C [22]: 6.22%
- viability, T/C [37]: 5.21%
- viability, T/C [38]: 1.17%
- viability, T/C [23]: 7.94%
- viability, T/C [24]: 7.2%
- viability, T/C [25]: 8.15%
- viability, T/C [26]: 7.96%
- viability, T/C [39]: 6.33%
- viability, T/C [40]: 1.38%
- viability, T/C [27]: 2.16%
- viability, T/C [28]: 2.09%
- viability, T/C [29]: 1.92%
- viability, T/C [30]: 2.08%
- viability, T/C [41]: 1.25%
- viability, T/C [42]: 0.24%

Compound: COc1cccc2c1C(=O)c1c(O)c3c(c(O)c1C2=O)CC(O)(C(=O)CO)CC3OC1CC(N)C(O)C(C)O1 (centres undefined)
- viability, T/C (compound 0.0316 µM): 66.3% and 79%
- viability, T/C (compound 0.1 µM): 41.5% and 64.7%
- viability, T/C (compound 0.316 µM): 15.3% and 35.8%
- viability, T/C (compound 1 µM): 7.56% and 20.2%
- viability, T/C (compound 3.16 µM): 1.88% and 6.69%
- viability, T/C (compound 10 µM): 1.33% and 1.37%
- IC50 (curve of compound): 66.6 nM and 183 nM

Compound: O=c1[nH]cc(F)c(=O)[nH]1 + CN1CCN(c2cc(C(=O)Nc3cc4cc(-c5cnn(C)c5)ccc4cn3)ccn2)CC1
- IC50 [1]: > 10000 nM
- IC50 [2]: 5960 nM
- IC50 [3]: < 31.6 nM
- IC50 [4]: < 31.6 nM
- IC50 [5]: < 31.6 nM
- IC50 [6]: < 31.6 nM
- viability, T/C [7]: 109%
- viability, T/C [8]: 101%
- viability, T/C [9]: 103%
- viability, T/C [10]: 77%
- viability, T/C [31]: 61.4%
- viability, T/C [32]: 56.1%
- viability, T/C [11]: 97.8%
- viability, T/C [12]: 81.2%
- viability, T/C [13]: 81.7%
- viability, T/C [14]: 69.8%
- viability, T/C [33]: 54.8%
- viability, T/C [34]: 44.9%
- viability, T/C [15]: 38.5%
- viability, T/C [16]: 35.3%
- viability, T/C [17]: 30.8%
- viability, T/C [18]: 25.4%
- viability, T/C [35]: 24.9%
- viability, T/C [36]: 18.9%
- viability, T/C [19]: 4.56%
- viability, T/C [20]: 4.75%
- viability, T/C [21]: 3.93%
- viability, T/C [22]: 4.22%
- viability, T/C [37]: 3.79%
- viability, T/C [38]: 3.85%
- viability, T/C [23]: 7.11%
- viability, T/C [24]: 6.79%
- viability, T/C [25]: 6.18%
- viability, T/C [26]: 6.26%
- viability, T/C [39]: 5.72%
- viability, T/C [40]: 5.29%
- viability, T/C [27]: 1.55%
- viability, T/C [28]: 1.68%
- viability, T/C [29]: 1.19%
- viability, T/C [30]: 1.49%
- viability, T/C [41]: 1.43%
- viability, T/C [42]: 1.2%

Now from value to compound, other results behind:

- IC50 [1]: > 1000 nM
- IC50 [2]: > 1000 nM
- IC50 [3]: > 1000 nM
- IC50 [4]: > 1000 nM
- IC50 [5]: > 1000 nM
- IC50 [6]: > 1000 nM
Compound: CCN1CCN(Cc2ccc(Nc3ncc(F)c(-c4cc(F)c5nc(C)n(C(C)C)c5c4)n3)nc2)CC1 + CNC(=O)c1ccc(Nc2nc(OC3CCCC3)c3c(-c4ccc5nc(C)oc5c4)c[nH]c3n2)c(OC)c1
- viability, T/C (second compound 0.0316 µM, first compound 0.00316 µM): 103%
- viability, T/C (second compound 0.0316 µM, first compound 0.01 µM): 106%
- viability, T/C [7]: 92%
- viability, T/C [8]: 126%
- viability, T/C [9]: 136%
- viability, T/C [10]: 154%
- viability, T/C (second compound 0.1 µM, first compound 0.00316 µM): 76.5%
- viability, T/C (second compound 0.1 µM, first compound 0.01 µM): 109%
- viability, T/C [11]: 95.7%
- viability, T/C [12]: 104%
- viability, T/C [13]: 122%
- viability, T/C [14]: 153%
- viability, T/C (second compound 0.316 µM, first compound 0.00316 µM): 91.6%
- viability, T/C (second compound 0.316 µM, first compound 0.01 µM): 98%
- viability, T/C [15]: 79.2%
- viability, T/C [16]: 117%
- viability, T/C [17]: 125%
- viability, T/C [18]: 156%
- viability, T/C (second compound 1 µM, first compound 0.00316 µM): 74.5%
- viability, T/C (second compound 1 µM, first compound 0.01 µM): 86.8%
- viability, T/C [19]: 84.8%
- viability, T/C [20]: 96.2%
- viability, T/C [21]: 134%
- viability, T/C [22]: 142%
- viability, T/C (second compound 3.16 µM, first compound 0.00316 µM): 63.2%
- viability, T/C (second compound 3.16 µM, first compound 0.01 µM): 61%
- viability, T/C [23]: 72.1%
- viability, T/C [24]: 85.7%
- viability, T/C [25]: 118%
- viability, T/C [26]: 123%
- viability, T/C (second compound 10 µM, first compound 0.00316 µM): 55.1%
- viability, T/C (second compound 10 µM, first compound 0.01 µM): 59.8%
- viability, T/C [27]: 75.4%
- viability, T/C [28]: 80.5%
- viability, T/C [29]: 101%
- viability, T/C [30]: 124%

- IC50 (curve of compound): > 10000 nM
Compound: COc1ccc([C@@H](O)c2cc(-c3ncnc4cc(N5CCOCC5)ccc34)c(F)cc2Cl)nn1
- viability, T/C (compound 0.0316 µM): 112% and 89.3%
- viability, T/C (compound 0.1 µM): 111% and 92.2%
- viability, T/C (compound 0.316 µM): 96.7% and 104%
- viability, T/C (compound 1 µM): 83.7% and 91.3%
- viability, T/C (compound 3.16 µM): 77.1% and 92.4%
- viability, T/C (compound 10 µM): 48.2% and 71.3%

- IC50 (curve of compound): > 300 nM
Compound: C=CC(=O)Nc1cc(Nc2nccc(-c3cn(C)c4ccccc34)n2)c(OC)cc1N(C)CCN(C)C
- viability, T/C (compound 0.000949 µM): 98.9% and 87.5%
- viability, T/C (compound 0.003 µM): 97.1% and 95.4%
- viability, T/C (compound 0.00949 µM): 94.8% and 88.7%
- viability, T/C (compound 0.03 µM): 95.2% and 96.2%
- viability, T/C (compound 0.0949 µM): 95.1% and 107%
- viability, T/C (compound 0.3 µM): 69.7% and 97.1%

From PubChem BioAssay AID2060622 (Molecular Pharmacology Branch, DTP, NCI, 2025)
